Measurements: ChEMBL document CHEMBL3351846, “Synthesis and SAR studies of bis-chromenone derivatives for anti-proliferative activity against human cancer cells” (Bioorg Med Chem Lett, 2014)
Where a name gives a salt, the structure may show the parent alone.

Assays:
Type in all cases: functional, cell-based
[1] = Anti-proliferative activity against human NUGC3 cells by XTT assay; details: NUGC-3
[2] = Anti-proliferative activity against human PC3 cells by XTT assay; details: PC-3
ACHN = assay: Anti-proliferative activity against human ACHN cells by XTT assay
NCI-H23 = assay: Anti-proliferative activity against human NCI-H23 cells by XTT assay
[3] = Anti-proliferative activity against human HCT15 cells by XTT assay; details: HCT-15
MDA-MB-231 = assay: Anti-proliferative activity against human MDA-MB-231 cells by XTT assay

Row | SMILES | IC50 [1] [µM] | IC50 [2] [µM] | IC50 (ACHN) [µM] | IC50 (NCI-H23) [µM] | IC50 [3] [µM] | IC50 (MDA-MB-231) [µM]
1 | O=c1c(Cc2coc3ccccc3c2=O)coc2ccccc12 | 7.77 | 7.4 | 0.51 | 1.4 | > 10 | > 10
2 | O=c1c(Cc2coc3cccc(O)c3c2=O)coc2ccccc12 | 3.27 | 5.95 | 0.74 | 7.55 | > 10 | > 10
3 | COc1cccc2occ(Cc3coc4ccccc4c3=O)c(=O)c12 | 3.19 | 3.49 | 0.34 | 1.93 | 3.43 | > 10
4 | CC(C)COc1cccc2occ(Cc3coc4ccccc4c3=O)c(=O)c12 | > 10 | 1.72 | 1.46 | > 10 | > 10 | > 10
5 | CC(C)CCOc1cccc2occ(Cc3coc4ccccc4c3=O)c(=O)c12 | > 10 | > 10 | 3.96 | > 10 | > 10 | > 10
6 | O=c1c(Cc2coc3cccc(OCc4ccccc4)c3c2=O)coc2ccccc12 | 7.22 | 4.83 | 3.99 | > 10 | > 10 | > 10
7 | O=c1c(/C=C/c2coc3ccccc3c2=O)coc2ccccc12 | > 10 | > 10 | > 10 | > 10 | > 10 | > 10
8 | O=c1c(CCc2coc3ccccc3c2=O)coc2ccccc12 | > 10 | > 10 | > 10 | > 10 | > 10 | > 10
9 | O=c1c(Cc2coc3cccc(OCC4CCCCC4)c3c2=O)coc2ccccc12 | 3.53 | 4.51 | 4.23 | 4.13 | 4.24 | 4.11
10 | Cc1ccc2c(=O)c(Cc3coc4cccc(OCC5CCCCC5)c4c3=O)coc2c1 | 2.15 | 2.44 | 2.25 | 3.22 | 2.22 | 3.32
11 | COc1ccc2c(=O)c(Cc3coc4cccc(OCC5CCCCC5)c4c3=O)coc2c1 | 1.44 | 1.12 | 1.35 | 1.32 | 1.45 | 1.2
12 | O=c1c(Cc2coc3cccc(OCC4CCCCC4)c3c2=O)coc2cc(Cl)ccc12 | > 10 | > 10 | > 10 | > 10 | > 10 | > 10
13 | O=c1c(Cc2coc3cccc(OCC4CCCCC4)c3c2=O)coc2cc(O)ccc12 | 3.22 | 4.25 | 2.1 | 2.15 | 2.11 | 3.22
14 | O=C1c2c(OCC3CCCCC3)cccc2OCC1Cc1coc2ccccc2c1=O (stereo not drawn) | 8.42 | 9.38 | 8.2 | 9.49 | 8.36 | 9.11
15 | COc1cccc2c1C(=O)c1c(O)c3c(c(O)c1C2=O)C[C@@](O)(C(=O)CO)C[C@@H]3O[C@H]1C[C@H](N)[C@H](O)[C@H](C)O1 [DOXORUBICIN HYDROCHLORIDE] | 0.38 |  |  | 0.49 | 0.43 | 0.6
